Test results from patent US7510852B2, “Biosynthetic genes and host cells for the synthesis of polyketide antibiotics and method of use” (priority 2002, dated 2009).

How the values were obtained:
proteases = settings: Birch and Patil, 1985a; cited from earlier work
[1] = system: E. coli DH5αKT clones that spontaneously grew within the growth inhibition zone of a pALB571-pOp3-4/XALB2-3 exconjugant; assay: Cross-resistance test: albicidin production assay with X. albilineans Xa23R1; format: cell-based, Escherichia coli; settings: albicidin produced by X. albilineans Xa23R1; two clones as tester strains
Procedure: Assay of albicidin production. Albicidin production was tested by a microbiological assay as described previously (Rott et al., 1996). Rifampicin and kanamycin exconjugants were spotted with sterile toothpicks (2-mm-diameter spots) onto plates of SPA medium (2% sucrose, 0.5% peptone, 1.5% agar) and incubated at 28° C. for 2-5 days. The plates were then overlaid with a mixture of E. coli DH5α (10^7 cells in 2 ml of distilled water) plus 2 ml of molten 1.5% (wt/vol) Noble agar (Difco) at ca. 65° C. and examined for inhibition zones after 24 h at 37 C.
Two E. coli DH5αKT clones, that spontaneously grew within the growth inhibition zone of a X. axonopodis pv. vesicatoria pALB571-pOp3-4/XALB2-3 exconjugant on SPA+tetracycline medium, were isolated and tested for resistance to albicidin. […] Comparison of chemical characteristics of the two molecules will, however, be necessary to confirm that the two molecules are identical.

[2] = system: prokaryotic DNA replication; settings: Birch and Patil, 1985a; cited from earlier work
[3] = system: chloroplast DNA replication; settings: Birch and Patil, 1983-1987; cited from earlier work
[4] = system: gram-positive and gram-negative bacteria; settings: range of gram-positive and gram-negative bacteria; Birch and Patil, 1985a; cited from earlier work

In the case of albicidin, the sensitivity to proteases (proteases) is given as “insensitive to proteases”, the “growth inhibition of clones resistant to the albicidin-like product” value [1] is given as “No growth inhibition” and the “effect on prokaryotic DNA replication” value [2] is given as “inhibits prokaryotic DNA replication”. For the same substance, the “effect on chloroplast DNA replication” value [3] was “inhibits chloroplast DNA replication” and the bactericidal activity [4] was “bactericidal”.
